Data set [1] is described as follows: Dynamic PET/CT imaging in mice. The data set is classed as in vivo, female BALB/c mice. The following applies: PET. Here is the method: Dynamic PET imaging was performed using a nanoScan PET-CT system manufactured by Mediso (Medical Imaging Systems, Budapest, Hungary). Mice (n = 6) were anaesthetized with isoflurane (2% v/v in oxygen) and placed on the preheated bed of the scanner (set at 38 °C). [^18F]AldoView (7.3 ± 4.1 MBq, formulated in 100–150 μl saline containing 5% ethanol) was injected into the tail vein via intravenous cannulation. After injection, the catheter was carefully removed. The breathing rate and body temperature of the animals were closely monitored during the dynamic PET scans and, if necessary, the isoflurane dose was adjusted. Scans were recorded over 1 h, and the animals were subsequently sacrificed by cervical dislocation. Quantification of the tissue uptake (in % ID/g) was carried out based on the regions of interest manually drawn on the CT using the software package VivoQuant 1.23 (inviCRO, Boston, USA).

Data set [2] is described as follows: Blood/plasma metabolite analysis by radio-HPLC. Type of data set: in vivo, female BALB/c mice. The procedure:
Blood metabolite analysis was performed as part of the biodistribution studies (n = 2–3 per time point). Blood samples were collected in heparin-coated tubes, and an aliquot (20 μL) was taken for gamma counting. After centrifugation (5 min, 13,000 rpm), the plasma (∼500 μL) was separated. Plasma proteins were subsequently precipitated with ice-cold acetonitrile (1 mL), and samples were centrifuged (5 min, 13,000 rpm). An aliquot of the supernatant (500 μL) was separated from the pellet and diluted with water (500 μL). The recovery of radioactivity in the supernatant was near quantitative (>95%). Analysis was carried out by radio-HPLC using a Phenomenex Onyx monolithic C-18 column (100 × 10 mm). The mobile phase consisted of water and methanol, and the flow rate was 5 mL/min. An isocratic eluent (10% methanol in water) was used for 3 min, followed by a gradient from 10 to 70% methanol over 7 min.

The next data set deals with human CYP11B2. Also on record: method as in PMID 26005536. Particulars: cited from earlier work.
The next data set deals with hCYP11B1. The arrangement: method as in PMID 26005536. Particulars: read-out: IC50 CYP11B1; cited from earlier work.

Each structure is given as a SMILES string. pIC50: −log10 of the molar value.

What is called pIC50 is the IC50 on a negative log10 scale, so that one unit is a factor of ten. For the molecule `Fc1cc2nc(-c3cncc([18F])c3)n(C3CC3)c2cc1F` [[^18F]AldoView], in data set [1], the “time for liver activity to decrease to half the peak value” is at most 30 min. In data set [1] (at 6 min postinjection), the peak liver activity is on record as 48 ± 11 % ID/g. Further, the “level of activity in muscle” value in data set [1] (knee extensors, throughout scan (1 h)) was below 1.5 % ID/g. Also, in data set [1] (postinjection), the “time of peak liver activity” value amounted to 6 min. The “intact parent fraction in blood” value in data set [2] (15 min postinjection) stood at 59%; in data set [2] (30 min postinjection), 29%; in data set [2] (60 min postinjection), 21%. Moreover, in data set [2] (120 min postinjection), the tracer in blood entry is on record as “still detectable in blood at 120 min, although at low levels”. In addition, the pIC50 is 8.33 in the data set on human CYP11B2 and 6.36 in the data set on hCYP11B1.
